Laboratory results published in US20240366612A1, “COMPOUNDS AND METHODS FOR MODULATING NUCLEIC ACID SPLICING” (REMIX THERAPEUTICS INC., priority 2021, published 2024).
pIC50: −log10 of the molar value. Counter-ions that a name gives are not always drawn.

Key:
Target C CJ mRNA = experiment: Gene panel canonical junction qPCR assay, Target C; format: cell-based; settings: Homo sapiens, larger gene panel, read-out: Target C IC50 (decrease in CJ mRNA levels)
Description: Compounds described herein were used to modulate RNA transcript abundance in cells. The expression of a target mRNA was measured by detecting the formation of an exon-exon junction in the canonical transcript (CJ). A compound mediated exon-inclusion event was detected by observing an increase in formation of a new junction with an alternative exon (AJ). Real-time qPCR assays were used to detect these splicing switches and interrogate the potency of various compounds towards different target genes. A high-throughput real time quantitative PCR (RT-qPCR) assay was developed to measure these two isoforms of the mRNA (CJ and AJ) for exemplary genes, such as HTT, SMN2, and MYB, together with a control housekeeping gene, GAPDH or GUSB or PPIA, used for normalization. Briefly, the A673 or K562 cell line was treated with various compounds described herein (e.g., compounds of Formula (I)). After treatment, the levels of the HTT, MYB, or SMN2 mRNA targets were determined from each sample of cell lysate by cDNA synthesis followed by qPCR.
The A673 cell line was cultured in DMEM with 10% FBS. Cells were diluted with full growth media and plated in a 96-well plate (15,000 cells in 100 ul media per well). The plate was incubated at 37° C. with 5% CO2 for 24 hours to allow cells to adhere. An 11-point 3-fold serial dilution of the compounds was made in DMSO then diluted in media in an intermediate plate. Compounds were transferred from the intermediate plate to the cell plate with the top dose at a final concentration of 10 uM in the well. Final DMSO concentration was kept at or below 0.25%. The cell plate was returned to the incubator at 37° C. with 5% CO2 for an additional 24 hours.
The K562 cell line was cultured in IMDM with 10% FBS. For K562, cells were diluted with full growth media and plated in either a 96-well plate (50,000 cells in 50 uL media per well) or a 384-well plate (8,000-40,000 cells in 45 uL media per well). An 11-point 3-fold serial dilution of the compounds were made in DMSO then diluted in media in an intermediate plate. Compound was transferred from the intermediate plate to the cell plate with the top dose at a final concentration of 10 uM in the well. Final DMSO concentration was kept at or below 0.25%. Final volume was 100 uL for 96-well plate and 50 uL for 384-well plate. The cell plate was then placed in an incubator at 37° C. with 5% CO2 for 24 hours.
The data analysis was performed by first determining the ΔCt vs the housekeeper gene. This ΔCt was then normalized against the DMSO control (ΔΔCt) and converted to RQ (relative quantification) using the 2^(−ΔΔCt) equation. The RQ were then converted to a percentage response by arbitrarily setting an assay window of 3.5 and 4.0 ΔCt for HTT-CJ and MYB-CJ respectively and an assay window of 9 and 3 ΔCt for HTT-AJ and MYB-AJ in 96 well format (50,000 K562 cells/well and 15,000 A673 cells per well) and an assay window of 3 and 4 ΔCt for HTT-CJ and MYB-CJ respectively and an assay window of 5 and 3 ΔCt for HTT-AJ and MYB-AJ respectively in 384 well format (8,000 K562 cells/well example). […] The percentage response was then fitted to the 4 parametric logistic equation to evaluate the concentration dependence of compound treatment. The increase in AJ mRNA is reported as AC50 (compound concentration having […] in AJ increase) while the decrease in CJ mRNA levels is reported as IC50 (compound concentration having 50% response in CJ decrease).
Additional studies were carried out for a larger panel of genes using the protocol provided above. The junction between flanking upstream and downstream exons was used to design canonical junction qPCR assays. At least one of the forward primer, reverse primer or the CY5-labeled 5′ nuclease probe (with 3′ quencher such as ZEN/Iowa Black FQ) was designed to overlap with the exon junction to capture the CJ mRNA transcript. […]

[1] = tested on: HiBiT-tagged MYB protein in K562 cells; experiment: HiBiT protein abundance assay, MYB; format: cell-based, human; settings: HiBiT-modified K562 cells, 24 hours, luminescence
Description: Compounds described herein were used to screen for effects on quantitative protein abundance using a HiBit assay system (Promega). Quantitative protein abundance was determined by measuring the protein levels of HiBit-tagged protein targets expressed in cell culture via luminescence using the Nano-Glo HiBiT Lytic Detection System, which uses a split complementation assay format to reconstitute NanoBiT enzyme to generate a luminescent signal. A protein abundance assay was developed such that endogenous protein targets could be modified with the HiBiT peptide tag and their abundance could be assessed after compound treatment. Briefly, K562 cell lines containing a HiBiT-modification were treated with various compounds described herein (e.g., compounds of Formulas (I), (II), or (III)). After treatment for 24 hours, the protein abundance of a specific target was determined by measuring luminescence.
• Promega Nano-Glo HiBiT Lytic Detection System (cat #N3030) • Corning 384-well TC-treated microplates (cat #3570) • Synthego Engineered Cells Knock-In Clones
Cells were maintained in IMDM with 10% FBS. Before the assay, cells were diluted with […] growth media (IMDM+1% FBS media) and were seeded in a 384-well plate at a density of 10000 cells/well (for each cell line listed in Table 5). Each compound was prepared as a 10-point 3-fold serial dilution in DMSO with the top dose at a final concentration of 10 μM in the well. Unmodified K562 cells were added at the previously specified density with DMSO to serve as an assay baseline and positive control (PC) and DMSO only with the respective modified cell lines was added to the negative control (NC) columns. Final DMSO concentration was kept at or below 0.25%. Treated cell plates were placed in an incubator at 37° C. with 5% CO2 for 24 hours. After 24 hours, 25 μL of Complete HiBit Lytic reagent was added to each well at room temperature (e.g. one plate requiring 10 mL Lytic Buffer, 100 μL LgBiT Protein, 200 μL Lytic Substrate), shaken for 5 minutes at 600 RPM, then left to sit for 10 minutes for signal to stabilize before reading on a Spark Cyto plate reader (Tecan) with a 500 ms measurement time.
To determine compound effects on protein abundance of each target in Table 5, the percent response for each respective cell line was calculated at each compound concentration as follows:
For the normalized response at each concentration, a four-parameter logistical regression was fit to the data and the response was interpolated at the 50% value to determine a concentration for protein abundance at 50% (IC50) the untreated control.

pIC50 (Target C CJ mRNA)	pIC50 [1]	SMILES
< 5.00	5.00 to 6.00	Cc1cn2cc(-c3cc4ncn([C@H]5CCNC[C@@H]5F)c(=O)c4s3)cc(F)c2n1 (relative stereo) [Compound 272, trans-6-{8-fluoro-2-methylimidazo[1,2-a]pyridin-6-yl}-3-[3-fluoropiperidin-4-yl]thieno[3,2-d]pyrimidin-4-one]
5.00 to 6.00	5.00 to 6.00	Cc1cn2cc(-c3cc4ncn([C@H]5CCNC[C@H]5F)c(=O)c4s3)cc(F)c2n1 (relative stereo) [Compound 273, cis-6-{8-fluoro-2-methylimidazo[1,2-a]pyridin-6-yl}-3-[3-fluoropiperidin-4-yl]thieno[3,2-d]pyrimidin-4-one]
5.00 to 6.00	6.00 to 7.00	Cc1cn2cc(-c3cc4ncn([C@H]5CCN[C@H](C)C5)c(=O)c4s3)cc(F)c2n1 (relative stereo) [Compound 277, 6-{8-fluoro-2-methylimidazo[1,2-a]pyridin-6-yl}-3-[(trans)-2-methylpiperidin-4-yl]thieno[3,2-d]pyrimidin-4-one]
6.00 to 7.00	6.00 to 7.00	Cc1cn2cc(-c3cc4ncn([C@H]5CCN[C@@H](C)C5)c(=O)c4s3)cc(F)c2n1 (relative stereo) [Compound 278, 6-{8-fluoro-2-methylimidazo[1,2-a]pyridin-6-yl}-3-[(cis)-2-methylpiperidin-4-yl]thieno[3,2-d]pyrimidin-4-one hydrochloride]
< 5.00	< 5.00	Cc1cc(-c2cc(=O)n3cc(N4CCN(C)CC4)sc3n2)cc2cn(C)nc12 [Compound 109, 7-(2,7-dimethyl-2H-indazol-5-yl)-2-(4-methylpiperazin-1-yl)-5H-thiazolo[3,2-a]pyrimidin-5-one]
< 5.00	< 5.00	Cc1cc(-c2cc(=O)n3nc(N4CCN(C)CC4)sc3n2)cc2cn(C)nc12 [Compound 157, 7-(2,7-dimethyl-2H-indazol-5-yl)-2-(4-methylpiperazin-1-yl)-5H-[1,3,4]thiadiazolo[3,2-a]pyrimidin-5-one]
5.00 to 6.00	5.00 to 6.00	Cc1cn2cc(-c3cc(=O)n4nc(N5CCN(C)CC5)sc4n3)cc(F)c2n1 [Compound 159, 7-(8-fluoro-2-methylimidazo[1,2-a]pyridin-6-yl)-2-(4-methylpiperazin-1-yl)-5H-[1,3,4]thiadiazolo[3,2-a]pyrimidin-5-one]
5.00 to 6.00	5.00 to 6.00	Cc1cc(-c2nn3c(=O)cc(N4CCNCC4)nc3s2)cc2cn(C)nc12 [Compound 206, 2-(2,7-dimethyl-2H-indazol-5-yl)-7-(piperazin-1-yl)-5H-[1,3,4]thiadiazolo[3,2-a]pyrimidin-5-one]
< 5.00	< 5.00	Cc1cn2cc(-c3cc(=O)n4cc(N5CCNC6(CC6)C5)sc4n3)cc(F)c2n1 [Compound 207, 7-(8-fluoro-2-methylimidazo[1,2-a]pyridin-6-yl)-2-(4,7-diazaspiro[2.5]octan-7-yl)-5H-thiazolo[3,2-a]pyrimidin-5-one]
5.00 to 6.00	5.00 to 6.00	Cc1cn2cc(-c3cn4c(=O)cc(N5CCNC6(CC6)C5)nc4s3)cc(F)c2n1 [Compound 208, 2-(8-fluoro-2-methylimidazo[1,2-a]pyridin-6-yl)-7-(4,7-diazaspiro[2.5]octan-7-yl)-5H-thiazolo[3,2-a]pyrimidin-5-one]
5.00 to 6.00	5.00 to 6.00	Cc1cn2cc(-c3cc(=O)n4nc(N5CCNC6(CC6)C5)sc4n3)cc(F)c2n1 [Compound 209, 7-(8-fluoro-2-methylimidazo[1,2-a]pyridin-6-yl)-2-(4,7-diazaspiro[2.5]octan-7-yl)-5H-[1,3,4]thiadiazolo[3,2-a]pyrimidin-5-one]
5.00 to 6.00	5.00 to 6.00	Cc1cc(-c2nn3c(=O)cc(N4CCN(C)CC4)nc3s2)cc2cn(C)nc12 [Compound 210, 2-(2,7-dimethyl-2H-indazol-5-yl)-7-(4-methylpiperazin-1-yl)-5H-[1,3,4]thiadiazolo[3,2-a]pyrimidin-5-one]
5.00 to 6.00	5.00 to 6.00	Cc1cn2nc(-c3cc(=O)n4cc(N5CCNC6(CC6)C5)sc4n3)cc(C)c2n1 [Compound 211, 7-(2,8-dimethylimidazo[1,2-b]pyridazin-6-yl)-2-(4,7-diazaspiro[2.5]octan-7-yl)-5H-thiazolo[3,2-a]pyrimidin-5-one]
5.00 to 6.00	5.00 to 6.00	Cc1cn2nc(-c3cn4c(=O)cc(N5CCNC6(CC6)C5)nc4s3)cc(C)c2n1 [Compound 212, 2-(2,8-dimethylimidazo[1,2-b]pyridazin-6-yl)-7-(4,7-diazaspiro[2.5]octan-7-yl)-5H-thiazolo[3,2-a]pyrimidin-5-one]
< 5.00	< 5.00	Cc1cn2cc(-c3cn4c(=O)cc(N5CCNCC5)nc4s3)cc(F)c2n1 [Compound 213, 2-(8-fluoro-2-methylimidazo[1,2-a]pyridin-6-yl)-7-(piperazin-1-yl)-5H-thiazolo[3,2-a]pyrimidin-5-one]
< 5.00	< 5.00	Cc1cn2cc(-c3nn4c(=O)cc(N5CCNCC5)nc4s3)cc(F)c2n1 [Compound 214, 2-(8-fluoro-2-methylimidazo[1,2-a]pyridin-6-yl)-7-(piperazin-1-yl)-5H-[1,3,4]thiadiazolo[3,2-a]pyrimidin-5-one]

SMILES	pIC50 (Target C CJ mRNA)	pIC50 [1]
Cc1cn2nc(-c3cc(=O)n4cc(N(C)C5CC(C)(C)NC(C)(C)C5)sc4n3)cc(C)c2n1 [Compound 205, 7-(2,8-dimethylimidazo[1,2-b]pyridazin-6-yl)-2-(methyl(2,2,6,6-tetramethylpiperidin-4-yl)amino)-5H-thiazolo[3,2-a]pyrimidin-5-one]	5.00 to 6.00	5.00 to 6.00
